Five compounds from patent publication US20260200849A1, “CATIONIC LIPIDS AND PREPARATION METHOD THEREOF” (RiboX Therapeutics HK Limited, priority 2024, published 2026) can be followed below.

Data set [1] can be described thus: RNA encapsulation efficacy (EE %) by Quant-IT Ribogreen kit. It counts as physicochemical. The conditions noted are these: LNP. On the procedure:
(§1) The LNP size and polydispersity index (PDI), determined by dynamic light scattering (DLS), and zeta potential were measured by a Zetasizer machine (Malvern). RNA concentration and encapsulation efficacy (EE %) were analyzed by the Quant-IT Ribogreen kit by calculating the percentage encapsulation at 100%—(RNA-LNPs/RNA-LNPs with Triton X-100).

For data set [2], the system named is Hep G2 cells. As to the kind of experiment: In vitro expression: luciferase activity in Hep G2 cells transfected with RNA-LNPs. The following applies: Formulation No. 001, RNA No. 331 (firefly-luciferase), 100 ng/mL RNA-LNPs, 72 hours post transfection. It counts as cell-based. On the procedure:
2E5 Hep G2 cells were transfected with 100 ng/mL of RNA-LNPs encoding for firefly-luciferase. At 72 hours post transfection, the cells were washed and lysed. The luciferase expression (2-well repeat) was determined in the cell lysates with the luciferase assay reagent kit (Promega), according to the kit protocol, luciferase activity was measured by a luminometer.

The nature of data set [3]: LNP size and polydispersity index (PDI) by dynamic light scattering (Zetasizer). It counts as physicochemical. The conditions noted are these: for Size (nm): Formulation No. 001 (Ionizable lipid:DSPC:cholesterol:DMG-PEG2000 = 50:10:38.5:1.5, N/P 6), RNA No. 331. On the procedure: as §1
Data set [4] deals with Hep G2 cells. Description: In vitro toxicity: Hep G2 cell viability by CellTiter-Glo. It counts as cell-based. The following applies: Formulation No. 001, RNA No. 331, 1 μg/mL RNA-LNPs, 72 hours post transfection, cell only = 100%. On the procedure:
2E5 Hep G2 cells were transfected with 1 μg/mL RNA-LNPs. At 72 hours post transfection, cell viability (2-well repeat) was determined with the CellTiter-Glo® reagent kit, according to the kit protocol, measured by a luminometer. Cell only as control (100%).
The cell viability was calculated according to the following formula: […]
A general note: Cellular ATP, detected with luciferase, serves as a proxy for viable cell number.

A further data set concerns Balb/c mice. Description: In vivo expression by IV, 0.05 mg/kg luciferase RNA-LNPs, IVIS luminescence. On the procedure: 7-8 week old, female Balb/c mice (N=3) were injected with 0.05 mg*kg−1 of RNA-LNPs encoding for firefly-luciferase by intravenous injection. At 24- and 72-hours post injection, animals were intraperitoneally injected with 15 mg/mi of Luciferin substrate and whole-body luminescence was determined by a bioluminescent in vivo imaging system (IVIS).
7-8 week old, female Balb/c mice (N=3) were injected with 0.05 mg*kg−1 of RNA-LNPs encoding for firefly-luciferase by intravenous injection. At 24-hours post injection, animals were intraperitoneally injected with 15 mg/ml of Luciferin substrate and whole-body/liver/spleen luminescence was determined by a bioluminescent in vivo imaging system (IVIS).

For a further data set, the system named is IL-6. Description: In vivo tolerability by IV: serum IL-6 by Luminex. Details: species or system C57BL/6J mice. The conditions noted are these: IV 1.0 mg/kg, male C57BL/6J mice N=3, Formulation 001, RNA 331. On the procedure: (§2) 6-8 week old, male C57BL/6J mice (N=3) were injected with 1.0 mg*kg/1 of RNA-LNPs encoding for firefly-luciferase by intravenous injection. At 2- and 24-hours post injection, about 40 μL blood was harvested and immediately added to the procoagulant containing tube. Stand for 30 min at room temperature and then centrifuged at 2500 g×10 min to obtain serum. About 15 μL serum samples were aliquoted for cytokine (MCP-1 and IL-6) detection by Luminex (ProcartaPlex Mouse 2-plex, Thermo). PBS group as negative control.
(§3) 6-8 week old, male C57BL/6J mice (N=3) were injected with 1.0 mg*kg−1 of RNA-LNPs encoding for firefly-luciferase by intravenous injection. At 2- and 24-hours post injection, about 40 μL blood was harvested and immediately added to the procoagulant containing tube. Stand for 30 min at room temperature and then centrifuged at 2500 g×10 min to obtain serum. About 15 μL serum samples were aliquoted for cytokine (MCP-1 and IL-6) detection by Luminex (ProcartaPlex Mouse 2-plex, Thermo). PBS group as negative control.

The test system of another data set is MCP-1. As to the kind of experiment: In vivo tolerability by IV: serum MCP-1 by Luminex. Details: species or system C57BL/6J mice. The following applies: IV 1.0 mg/kg, male C57BL/6J mice N=3, Formulation 001, RNA 331. On the procedure: as §2, §3
Data set [5] can be described thus: In vivo lipid metabolism by IV: ionizable lipid concentration in plasma and liver by LC-MS/MS. The following applies: IV 0.15 mg/kg RNA-LNPs (hEPO), male SD rats, individual animals N=3. Details: species or system Sprague-Dawley (SD) rats. The protocol:
In Vivo Lipid Metabolism by IV 7-8 week old, male Sprague-Dawley (SD) rats (N=3) were injected with 0.15 mg*kg−1 of RNA-LNPs encoding for hEPO by intravenous injection. At 1-/6-/96-/168-hours post injection, about 100 μL blood will be harvested and immediately added to the EDTAK2 containing tube. Place on wet ice and then centrifuged at 3000 g×5 min to obtain plasma. 30 μL plasma will be aliquoted to the 1.5 mL tubes. At terminal 6-/168-hours post injection, the rats will be euthanized with CO2, hemorrhaged immediately with cardiac puncture, respectively. The livers were harvested, weighed and washed with saline, then put into 50 ml centrifuge tube placed in liquid nitrogen, then transferred into wet ice, and finally stored at −80° C. immediately. Both plasma and liver samples were used for ionizable lipid concentration quantification by LC-MS/MS. The lower limit of quantitation (LLOQ) is 1 ng/mL in plasma or 11 ng/g in liver. BQL—Below the lower limit of quantitation (LLOQ).

The subject of another data set is C57BL/6J mice. As to the kind of experiment: In vivo expression by IV, 1.0 mg/kg luciferase RNA-LNPs, whole-body and organ IVIS luminescence. The conditions noted are these: IV 1.0 mg/kg, 24 h post injection, male C57BL/6J mice N=3, Formulation 001, RNA 331. The protocol:
6-8 week old, male C57BL/6J mice (N=3) were injected with 1.0 mg*kg−1 of RNA-LNPs encoding for firefly-luciferase by intravenous injection. At 24-hours post injection, animals were intraperitoneally injected with 15 mg/ml of Luciferin substrate and whole-body/liver/spleen/kidney/small intestine/large intestine luminescence were determined by a bioluminescent in vivo imaging system (IVIS).
6-8 week old, male C57BL/6J mice (N=3) were injected with 1.0 mg*kg−1 of RNA-LNPs encoding for firefly-luciferase by intravenous injection. At 24-hours post injection, animals were intraperitoneally injected with 15 mg/nil of Luciferin substrate and whole-body/liver/spleen/kidney/small intestine/large intestine luminescence were determined by a bioluminescent in vivo imaging system (IVIS).

[6] abbreviates: Formulation No. 001, RNA No. 331.
Setting [7] is: Formulation No. 001, RNA No. 331, female Balb/c mice, 0.05 mg*kg−1 intravenous, 24-hours post injection.
The mark [8] stands for this setting: Formulation No. 001, RNA No. 019 (hEPO).
Where [9] appears, read: IV 0.05 mg/kg, 24 h post injection, female Balb/c mice N=3, Formulation 001, RNA 331.

Values joined by “and” are separate entries in the source; they are usually repeats but may differ in a detail not shown here. Equal values may be shown once. Read-outs that look alike come from different tables or passages of the source.

As to `CCCCCCCCC(CCCCCCCC)OC(=O)CCCCCCCOC(=O)C(COC(=O)NCCN1CCCCCC1)NC(=O)OCCCCCCCCOC(=O)C(CCCCCC)CCCCCCCC` (stereo not drawn) [Lipid 897], the “EE (%)” value in data set [1] (setting [6]) was determined as 95.30%. Moreover, in the data set on Hep G2 cells [2], the “In vitro Expression (Mean)” value came to 1.77E+05. In addition, the “Size (nm)” value in data set [3] is on record as 60.19 nm. In [3] (setting [6]), this compound had a PDI of 0.04. The “In vitro cell viability (%) (Mean)” value with Hep G2 cells [4] stood at 88.39%. Further, in the data set with Balb/c mice (setting [7]), the “Liver (p/s) (Mean)” value is reported as 1.67E+08 p/s, the “Spleen (p/s) (Mean)” value was determined as 7.67E+07 p/s and the “Whole body (p/s) (Mean)” value was found to be 8.36E+08 p/s.
Regarding `CCCCC/C=C\C/C=C\CCCCCCCCOC(=O)NC(COC(=O)NCCN1CCCC1)C(=O)OCCCCCC(=O)OCC(CCCCCCCC)CCCCCCCCCC` (stereo not drawn) [Lipid 909], in data set [1] (setting [6]), the “EE (%)” value stood at 98.41%. The “In vitro Expression (Mean)” value in the data set with Hep G2 cells [2] was found to be 7.29E+04. In [3], the “Size (nm)” value was 74.26 nm. The PDI in [3] (setting [6]) was determined as 0.02. The “In vitro cell viability (%) (Mean)” value in the data set on Hep G2 cells [4] was determined as 94.80%. Further, in the data set with Balb/c mice (setting [7]), the “Liver (p/s) (Mean)” value stood at 7.57E+07 p/s, the “Spleen (p/s) (Mean)” value was 2.35E+07 p/s and the “Whole body (p/s) (Mean)” value is 7.25E+08 p/s.
Turning to `CCCCCCCCCCCOC(=O)NC(COC(=O)NCCN(C)C)C(=O)OCCCCCCCC(=O)OC(CCCCCCCC)CCCCCCCC` (stereo not drawn) [Lipid 912], in [1] (setting [6]), the “EE (%)” value was 97.83%. Further, the “In vitro Expression (Mean)” value in the data set on Hep G2 cells [2] is recorded as 4.57E+04. Moreover, the “Size (nm)” value in data set [3] worked out at 74.18 nm. The compound also displayed a PDI in data set [3] (setting [6]) of 0.03. For the same compound, the “In vitro cell viability (%) (Mean)” value with Hep G2 cells [4] is reported as 92.96%. Further, in the data set with Balb/c mice (setting [7]), the “Liver (p/s) (Mean)” value is 1.67E+07 p/s, the “Spleen (p/s) (Mean)” value is on record as 7.97E+06 p/s and the “Whole body (p/s) (Mean)” value is 8.26E+07 p/s.
In the case of `CCCCCCCCCC(=O)OCCCCCCCOC(=O)C(COC(=O)NCCN(C)C)NC(=O)OCCCCCCCCOC(=O)C(CCCCCC)CCCCCCCC` (stereo not drawn) [Lipid 930], the “EE (%)” value in [1] (setting [6]) came out at 97.46%. In addition, in the data set with Hep G2 cells [2], the “In vitro Expression (Mean)” value came to 8.27E+03. Also, the “Size (nm)” value in data set [3] is reported as 92.24 nm. This compound had a PDI in data set [3] (setting [6]) of 0.04. For the same compound, the “In vitro cell viability (%) (Mean)” value with Hep G2 cells [4] turned out to be 92.08%. Moreover, in the data set with Balb/c mice (setting [7]), the “Liver (p/s) (Mean)” value is 3.49E+07 p/s, the “Spleen (p/s) (Mean)” value was 6.28E+06 p/s and the “Whole body (p/s) (Mean)” value was found to be 1.31E+08 p/s.
Regarding `CCCCCCCCCCC(CCCCCCCC)COC(=O)CCCCCOC(=O)NC(COC(=O)NCCN1CCCCCC1)C(=O)OCCCCCC(=O)OCC(CCCCCCCC)CCCCCCCCCC` (stereo not drawn) [Lipid 1021], in data set [1] (setting [8]), the “EE (%)” value was 96.60%. For the same compound, the “EE (%)” value in data set [1] (setting [6]) was 93.55%. Moreover, the “IL-6 at 2 h” value in the data set on IL-6 (2 h) came out at 28.6 pg/mL. Further, the “IL-6 at 24 h” value in the data set on IL-6 (24 h) came out at 0.639 pg/mL. For the same compound, in data set [3] (setting [8]), the PDI amounted to 0.04 and the Size came out at 57.55 nm. Also, in data set [3] (setting [6]), the PDI is 0.05 and the Size is on record as 57.55 nm. Moreover, in the data set with Balb/c mice (setting [9]), the “Liver (p/s) (Mean)” value is 1.19E+08 p/s, the “Spleen (p/s) (Mean)” value is recorded as 5.32E+07 p/s and the “Whole body (p/s) (Mean)” value is reported as 8.26E+08 p/s. Moreover, in the data set with MCP-1 (2 h), the “MCP-1 at 2 h” value worked out at 1560 pg/mL. Besides, in the data set on MCP-1 (24 h), the “MCP-1 at 24 h” value came to 166 pg/mL. Further, the “Plasma (ng/mL), ionizable lipid concentration” value (from here on “Plasma (ng/mL)”) in [5] (1 h post injection) was 2558 ng/mL and 2938 ng/mL. In data set [5] (6 h post injection), the “Liver (ng/g), ionizable lipid concentration” value was 33582 ng/g and 37570 ng/g; the “Plasma (ng/mL)” value was 976 ng/mL and 1347 ng/mL. Also, the “Plasma (ng/mL)” value in data set [5] (96 h post injection) is 23.9 ng/mL and 5.16 ng/mL and 9.41 ng/mL. Also, in data set [5] (168 h post injection), the “Liver (ng/g), ionizable lipid concentration” value is 3103 ng/g and 1228 ng/g and 1508 ng/g; the “Plasma (ng/mL)” value is 6.98 ng/mL and 1.89 ng/mL. The concentration at 6 h in data set [5] (male, Sprague-Dawley, rat, liver, iv, 0.15 mg/kg, 6 h post injection, read-out: Liver (ng/g), ionizable lipid concentration) was found to be 48100 ng/g. For the same compound, in data set [5] (male, Sprague-Dawley, rat, plasma, iv, 0.15 mg/kg, 1 h post injection), the concentration at 1 h came out at 3280 ng/mL. Moreover, the concentration at 6 h in [5] (male, Sprague-Dawley, rat, plasma, iv, 0.15 mg/kg, 6 h post injection, read-out: Plasma (ng/mL), ionizable lipid concentration) amounted to 1480 ng/mL. Besides, in the data set on C57BL/6J mice, the “Kidney (p/s)” value is on record as 5.69E+07 p/s, the “Large intestine (p/s)” value is reported as 1.91E+08 p/s, the “Liver (p/s)” value amounted to 1.88E+10 p/s and the “Small intestine (p/s)” value worked out at 1.60E+09 p/s. In the data set on C57BL/6J mice, the “Spleen (p/s)” value is recorded as 6.45E+08 p/s and the “Whole body (p/s)” value came to 1.48E+10 p/s.
